In patent publication US20050191668A1, “Methods of using peroxisome proliferator-activated receptor alpha target genes” (priority 2004, published 2005):

Tests used:
[1] = tested on: Pa21 gene; experiment: Pa21 gene expression by real-time RT-PCR in primary skeletal muscle cells; type: cell-based, human; conditions: about 18-20 hours, vehicle control = 100
Text: (§1) Human hepatocyte HuH7 cells, which are epithelial cells of liver, were obtained from Japan Health Science Research Resources Bank (Osaka, Japan). Human primary adipocytes, which are connective tissue cells specialized for the synthesis and storage of fat, were obtained from Zen-Bio, Inc (Research Triangle Park, NC). Human primary skeletal muscle cells (SKMC) were obtained from Cambrex Bio Science (Walkersville, Md.). PPARα agonists, Wy14643 (Agatha, et al, 2000, Archives of Biochemistry and Biophysics 380:353-359) and fenofibrates were obtained from Cayman Chemical (Ann Arbor, Mich.) and Sigma (St Louis, Mo.), respectively.
(§2) Human HuH7 cells were cultured in Dulbecco's Modified Eagle Medium with 10% Fetal Bovine Serum (Gibco, N.Y.). Cells were treated with charcoal-stripped, delipidated calf serum (5%) (Sigma, St Louis, Mo.) for about 4-18 hours. Then, cells were treated with different concentrations of PPARα agonist (Wy14643 or fenofibrates) for about 20-24 h. Human SKM cells were cultured in Skeletal Muscle Growth Medium (Cambrex Bio Science, Walkersville, Md.), and were treated with different concentrations of PPARα agonist (Wy14643 or fenofibrates) for about 18-20 hours. Human primary adipocytes were cultured in Preadipocyte Medium, (Cat #PM—1, Zen-Bio, Inc., Research Triangle Park, NC), and were treated with different concentrations of PPARα agonist (Wy14643 or fenofibrates) for about 18-20 hours.
(§3) Total RNA was purified from cultured cells following the protocol provided by the manufacturer (Trizon method, Invitrogen Inc. Ca). The polymerase chain reaction (PCR) primers and fluorescent probes (TagMan probes) for Pa9, Pa13, and Pa21 were designed from GenBank sequences of accession numbers W30988, AB000584, and NM_080725, respectively. The primers and probes were designed using the software PrimerDesign (Applied Biosystems, Foster City, Calif.). The PCR primers for Pa9 were SEQ ID NO: 7, (5-[…]) and SEQ ID NO: 8 (5-[…]). […] The PCR primers for Pa13 were SEQ ID NO: 10 (5-[…], T) and SEQ ID NO: 11 (5-[…] T). […] The PCR primers for Pa21 were SEQ ID NO: 13 (5-[…] C) and SEQ ID NO: 14 (5-[…]). […] All primers and probes were synthesized by Keystone Labs (Camarillo, Calif.).
(§4) Reverse transcription (RT) and PCR were conducted in one step using “One-Step RT-PCR Master Mix Reagent” kit (Applied Biosystems, Foster City, Calif.) in ABI PRISM 7700 Sequence Detection System (Applied Biosystems). Each reaction was performed in a total volume of 25 μl containing 40 ng of total RNA. The reaction condition was: 48° C. for 30 minutes, 60° C. for 30 minutes, 94° C. for 5 minutes, followed by 40 cycles of 94° C. for 20 seconds and 60° C. for 1 minute. The primers for 18S ribosomal RNA were developed and provided by Applied Biosystems. The measurement of human 18S ribosomal RNA was used as an internal control for normalization of measuring and loading errors. PCR data were collected by Ct value (the cycle number at which logarithmic PCR plots cross a calculated threshold line) according to the manufacturer's guidelines and the value was used to determine the Δ^Ct (Ct of the target gene minus the Ct of 18S ribosomal RNA controls). Relative mRNA level was calculated using the equation 2^−ΔΔCt as described previously (Heid et al., 1996, Genome Res. 6:986-994).

[2] = tested on: Pa13 gene; experiment: Pa13 gene expression by real-time RT-PCR in HuH7 hepatocytes; type: cell-based, human; conditions: about 20-24 h, vehicle control = 100
Text: as §1, §2, §3, §4

[3] = tested on: Pa13 gene; experiment: Pa13 gene expression by real-time RT-PCR in primary skeletal muscle cells; type: cell-based, human; conditions: about 18-20 hours, vehicle control = 100
Text: as §1, §2, §3, §4

[4] = tested on: human FDRG gene; experiment: FDRG gene expression by real-time RT-PCR in primary skeletal muscle cells; type: cell-based; conditions: Veh = 1.00, same RNA sample
Experimental: as §4
The nucleotide sequence of the human FDRG gene (AX278133) is provided in SEQ ID NO: 1 and the sequence alignment between W30988 and FDRG gene is shown in FIG. 1. […] Quantitative real-time RT-PCR was performed to test whether gene expression of the human FDRG gene is regulated by PPARα. […]

[5] = tested on: Pa21 gene; experiment: Pa21 gene expression in SKM cells with siRNA-reduced PPARα expression; type: cell-based, human; conditions: SKMU cells with reduced PPARα expression
Text: SiRNA oligos specific to PPARα were designed and used to knock-down or reduce the expression level of PPARα in human SKMU cells following procedures known to those skilled in the art (Brummelkamp et al., 2002, Science, 296: 550-553). Four sets of siRNA oligo were originally designed using GenBank accession number S74349 (human peroxisome proliferator activated receptor alpha, cDNA; PPARα) as the template, and the software, Target Finder (Ambion, Austin, Tex.). […] The sequences for the two sets of siRNA correspond to 907 bp to 927 bp (SEQ ID NO: 21, 5′-[…] A) and 1106 bp to 1126 bp of the cDNA (SEQ ID NO: 22, 5′-[…] T) relative to the first nucleotide of the start codon. The oligos were chemically synthesized by Ambion Inc. (Austin, Tex.). The universal negative control siRNA oligo was purchased from Ambion.
Human primary skeletal muscle cells (hSKM, provided by Cambrex, Md.) were prepared the day before transfection at the density of 4.67×10^4 cells/per 60 mm dish (about 20% confluence). The cells were cultured at 37° C., 5% CO2 for 24 hrs with antibiotics-free SKGM medium (Cambrex, Md.). […]
Again, total RNA was isolated from the cells and real-time PCR was performed and the expression levels of target genes of interest, such as Pa9, 13 and 21, were quantitatively measured using the RT-PCR technique described in Example 1.

Cc1cccc(Nc2cc(Cl)nc(SCC(=O)O)n2)c1C [Wy14643] was tested, and the “Pa21 (H4960) gene expression, Percentage ± SE (%)” value (“Pa21 … Percentage ± SE (%)” below) ([1]; 3 uM) was 130 ± 23.8%, the “Pa21 … Percentage ± SE (%)” value ([1]; 10 uM) was 200 ± 48.5% and the “Pa21 … Percentage ± SE (%)” value ([1]; 30 uM) was 310 ± 1.9%. The “Pa21 … Percentage ± SE (%)” value ([1]; 100 uM) was 560 ± 16.6%, the “Pa21 … Percentage ± SE (%)” value ([1]; 300 uM) was 2250 ± 11.7% and the “Pa13 (N26311) gene expression, Percentage ± SE (%)” value (“Pa13 … Percentage ± SE (%)” below) ([2]; 3 uM) was 70 ± 28%. The “Pa13 … Percentage ± SE (%)” value ([2]; 10 uM) was 100 ± 4%, the “Pa13 … Percentage ± SE (%)” value ([2]; 30 uM) was 140 ± 26.4% and the “Pa13 … Percentage ± SE (%)” value ([2]; 100 uM) was 130 ± 17.7%. The “Pa13 … Percentage ± SE (%)” value ([2]; 300 uM) was 720 ± 36.4%, the “Pa13 … Percentage ± SE (%)” value ([3]; 3 uM) was 36.4 ± 6.4% and the “Pa13 … Percentage ± SE (%)” value ([3]; 10 uM) was 45.5 ± 10%. The “Pa13 … Percentage ± SE (%)” value ([3]; 30 uM) was 136.4 ± 38.7%, the “Pa13 … Percentage ± SE (%)” value ([3]; 100 uM) was 290.9 ± 54.1% and the “Pa13 … Percentage ± SE (%)” value ([3]; 300 uM) was 1672.7 ± 32%. The “FDRG gene expression, Fold of Induction” value ([4]; 30 uM) was 4.37 fold, the “FDRG gene expression, Fold of Induction” value ([4]; 100 uM) was 7.8 fold and the “FDRG gene expression, Fold of Induction” value ([4]; 100 uM, listed as WY14643) was 7.80 fold. For the same compound, the “induction of Pa21 gene expression (FIG. 7)” value [5] was “no detectable induction”.
